Data published in patent US7834009B2, “4-hydroxy-5,6-dihydro-1H-pyridin-2-one compounds” (Anadys Pharmaceuticals, Inc., priority 2007, dated 2010).
pIC50: −log10 of the molar value.

Biological target: HCV NS5B polymerase (Hepatitis C virus genotype 1b, UniProt P26663)
Test: biochemical
Details: 20 nM enzyme, 0.6 μM GTP, 250 nM 5′biotinylated oligo (rG13)/poly rC, 75 min at 28° C.
Description: Compounds were tested for HCV polymerase inhibition. Assays were performed in a 96-well streptavidin-coated FlashPlate using 20 nM enzyme, 0.5 μCi of [α-^33P]GTP, 0.6 μM GTP, and 250 nM 5′biotinylated oligo (rG13)/poly rC in 20 mM Tris-HCl, pH 7.5, 5 mM MgCl2, 5 mM dithiothreitol, 0.1 g/L bovine serum albumin, and 100 U/mL RNAse inhibitor. The reaction was stopped by aspiration after 75 min at 28° C. and the plate was washed several times. After washing and drying the plate, incorporated radioactivity was counted using a Microbeta scintillation counter. IC50 values were calculated relative to the uninhibited control and inhibition data were fitted to a 4-parameter IC50 equation.

Chain of HCV NS5B polymerase (P26663 2420-3010): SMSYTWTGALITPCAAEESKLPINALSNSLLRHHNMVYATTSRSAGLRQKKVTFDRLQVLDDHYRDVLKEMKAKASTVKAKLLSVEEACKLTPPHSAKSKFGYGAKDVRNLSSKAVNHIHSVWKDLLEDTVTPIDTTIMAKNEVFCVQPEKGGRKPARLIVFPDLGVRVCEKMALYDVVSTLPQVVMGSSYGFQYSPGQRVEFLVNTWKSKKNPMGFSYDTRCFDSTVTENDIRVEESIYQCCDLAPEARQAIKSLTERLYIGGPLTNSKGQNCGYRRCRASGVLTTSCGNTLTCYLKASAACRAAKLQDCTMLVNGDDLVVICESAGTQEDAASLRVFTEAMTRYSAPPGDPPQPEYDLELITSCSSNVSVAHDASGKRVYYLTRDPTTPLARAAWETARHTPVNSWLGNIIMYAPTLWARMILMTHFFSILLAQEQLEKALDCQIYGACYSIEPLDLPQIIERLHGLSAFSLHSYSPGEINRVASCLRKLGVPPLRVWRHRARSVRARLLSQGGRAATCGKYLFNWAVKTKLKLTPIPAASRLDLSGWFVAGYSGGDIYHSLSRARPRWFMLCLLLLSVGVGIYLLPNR

Compound	pIC50
CC(C)CCC1(C)C(O)=C(C2=NS(=O)(=O)c3cc(NS(C)(=O)=O)ccc3N2)C(=O)N2CCCC21 (centres unmarked) [Example 5, N-{3-[7-Hydroxy-8-methyl-8-(3-methyl-butyl)-5-oxo-1,2,3,5,8,8a-hexahydro-indolizin-6-yl]-1,1-dioxo-1,4-dihydro-1λ6-benzo[1,2,4]thiadiazin-7-yl}-methanesulfonamide]	> 7.00
CC(C)CCC1(C)CN(N2CCCC2)C(=O)C(C2=NS(=O)(=O)c3cc(NS(C)(=O)=O)ccc3N2)=C1O (centres unmarked) [Example 7, N-{3-[4-Hydroxy-5-methyl-5-(3-methyl-butyl)-2-oxo-1-pyrrolidin-1-yl-1,2,5,6-tetrahydro-pyridin-3-yl]-1,1-dioxo-1,4-dihydro-1λ^6-benzo[1,2,4]thiadiazin-7-yl}-methanesulfonamide]	> 7.00
CC(C)CCN1CC(C)(C)C(O)=C(C2=NS(=O)(=O)c3cc(NS(C)(=O)=O)ccc3N2)C1=O [Example 11, N-{3-[4-Hydroxy-5,5-dimethyl-1-(3-methyl-butyl)-2-oxo-1,2,5,6-tetrahydro-pyridin-3-yl]-1,1-dioxo-1,4-dihydro-1λ^6-benzo[1,2,4]thiadiazin-7-yl}-methanesulfonamide]	6.00 to 7.00
CC#CCC1(C)CN(C2CCCC2)C(=O)C(C2=NS(=O)(=O)c3cc(NS(C)(=O)=O)ccc3N2)=C1O (centres unmarked) [Example 26, N-[3-(5-But-2-ynyl-1-cyclopentyl-4-hydroxy-5-methyl-2-oxo-1,2,5,6-tetrahydro-pyridin-3-yl)-1,1-dioxo-1,4-dihydro-1λ^6-benzo[1,2,4]thiadiazin-7-yl]-methanesulfonamide]	6.00 to 7.00
CC(C)(C)CCN1CC(C)(C2CCCC2)C(O)=C(C2=NS(=O)(=O)c3cc(NS(C)(=O)=O)ccc3N2)C1=O (centres unmarked) [Example 30, N-{3-[5-Cyclopentyl-1-(3,3-dimethyl-butyl)-4-hydroxy-5-methyl-2-oxo-1,2,5,6-tetrahydro-pyridin-3-yl]-1,1-dioxo-1,4-dihydro-1λ^6-benzo[1,2,4]thiadiazin-7-yl}-methanesulfonamide]	> 7.00
CC1(c2ccccc2)CN(C2CCC2)C(=O)C(C2=NS(=O)(=O)c3cc(NS(C)(=O)=O)ccc3N2)=C1O (centres unmarked) [Example 32, N-[3-(1-Cyclobutyl-4-hydroxy-5-methyl-2-oxo-5-phenyl-1,2,5,6-tetrahydro-pyridin-3-yl)-1,1-dioxo-1,4-dihydro-1λ^6-benzo[1,2,4]thiadiazin-7-yl]-methanesulfonamide]	5.40 to 6.00
CC(C)CCC1(CO)CN(C2CCCC2)C(=O)C(C2=NS(=O)(=O)c3cc(NS(C)(=O)=O)ccc3N2)=C1O (centres unmarked) [Example 54, N-{3-[1-Cyclopentyl-4-hydroxy-5-hydroxymethyl-5-(3-methyl-butyl)-2-oxo-1,2,5,6-tetrahydro-pyridin-3-yl]-1,1-dioxo-1,4-dihydro-1λ^6-benzo[1,2,4]thiadiazin-7-yl}-methanesulfonamide]	> 7.00
CC(C)[C@H]1CC(O)=C(C2=NS(=O)(=O)c3cc(NS(C)(=O)=O)ccc3N2)C(=O)N1Cc1ccc(F)c(Cl)c1 [Example 55, N-{3-[1-(3-Chloro-4-fluoro-benzyl)-4-hydroxy-6(R)-isopropyl-2-oxo-1,2,5,6-tetrahydro-pyridin-3-yl]-1,1-dioxo-1,4-dihydro-1λ^6-benzo[1,2,4]thiadiazin-7-yl}-methanesulfonamide]	> 7.00
CC(C)CCC1(COCc2ccccc2)CN(C2CCCC2)C(=O)C(C2=NS(=O)(=O)c3cc(NS(C)(=O)=O)ccc3N2)=C1O (centres unmarked) [Example 58, N-{3-[5-Benzyloxymethyl-1-cyclopentyl-4-hydroxy-5-(3-methyl-butyl)-2-oxo-1,2,5,6-tetrahydro-pyridin-3-yl]-1,1-dioxo-1,4-dihydro-1λ^6-benzo[1,2,4]thiadiazin-7-yl}-methanesulfonamide]	5.40 to 6.00

Other lines, results leading:

pIC50	Compound
5.40 to 6.00	CC1(C)CN(C2CCCC2)C(=O)C(C2=NS(=O)(=O)c3cc(NS(C)(=O)=O)ccc3N2)=C1O [Example 18, N-[3-(1-Cyclopentyl-4-hydroxy-5,5-dimethyl-2-oxo-1,2,5,6-tetrahydro-pyridin-3-yl)-1,1-dioxo-1,4-dihydro-1λ^6-benzo[1,2,4]thiadiazin-7-yl]-methanesulfonamide]
> 7.00	CC(C)=CCC1CN(C2CCCC2)C(=O)C(C2=NS(=O)(=O)c3cc(NS(C)(=O)=O)ccc3N2)=C1O (centres unmarked) [Example 22, N-{3-[1-Cyclopentyl-4-hydroxy-5-(3-methyl-but-2-enyl)-2-oxo-1,2,5,6-tetrahydro-pyridin-3-yl]-1,1-dioxo-1,4-dihydro-1λ^6-benzo[1,2,4]thiadiazin-7-yl}-methanesulfonamide]
6.00 to 7.00	CC(C)CCN1C(=O)C(C2=NS(=O)(=O)c3cc(NS(C)(=O)=O)ccc3N2)=C(O)C[C@@H]1c1ccccc1 [Example 49, N-{3-[4-Hydroxy-1-(3-methyl-butyl)-2-oxo-6(R)-phenyl-1,2,5,6-tetrahydro-pyridin-3-yl]-1,1-dioxo-1,4-dihydro-1λ^6-benzo[1,2,4]thiadiazin-7-yl}-methanesulfonamide]
5.40 to 6.00	CC(C)CCC1CC(O)=C(C2=NS(=O)(=O)c3cc(NS(C)(=O)=O)ccc3N2)C(=O)N1C1CCCC1 (centres unmarked) [Example 53, N-{3-[1-Cyclopentyl-4-hydroxy-6-(3-methyl-butyl)-2-oxo-1,2,5,6-tetrahydro-pyridin-3-yl]-1,1-dioxo-1,4-dihydro-1λ^6-benzo[1,2,4]thiadiazin-7-yl}-methanesulfonamide]
5.40 to 6.00	CC(C)CC1CC(O)=C(C2=NS(=O)(=O)c3cc(NS(C)(=O)=O)ccc3N2)C(=O)N1C1CCCC1 (centres unmarked) [Example 56, N-[3-(1-Cyclopentyl-4-hydroxy-6-isobutyl-2-oxo-1,2,5,6-tetrahydro-pyridin-3-yl)-1,1-dioxo-1,4-dihydro-1λ^6-benzo[1,2,4]thiadiazin-7-yl]-methanesulfonamide]
